Measured values taken from ChEMBL document CHEMBL5150017, “Mechanism of Action and Structure-Activity Relationship of α-Conotoxin Mr1.1 at the Human α9α10 Nicotinic Acetylcholine Receptor” (J Med Chem, 2022).
Calls of active or inactive are those of the source. The rule behind the calls is not given here. Positions of bridges follow the written chain, without caps; N, C: chain ends. Non-standard residues stand in square brackets, D forms with d. Residues, ends and D or L forms follow the SMILES beside them. ξ: configuration not given here. ξDap = NCC(N)C(=O)O

Legend:
[1] = biological target: T1, Neuronal acetylcholine receptor; alpha9/alpha10 (Homo sapiens) (UniProt Q9UGM1+Q9GZZ6); experiment: Antagonist activity at human alpha9alpha10 nAChR expressed in Xenopus laevis oocytes assessed as inhibition of ACh-induced current amplitude at -80 mV holding potential at 1 uM by two-electrode voltage clamp method; format: cell-based; conditions: Oocyte
Mus musculus [2] = experiment: Analgesic activity in chronic constriction injury-induced mechanical pain mouse model assessed as increase in paw withdrawal latency at 2.5 ug/kg measured after 12 hrs; format: functional, organism-based; conditions: dose 2.5 µg/kg
[3] = Antagonist activity at rat alpha9alpha10 nAChR expressed in Xenopus laevis oocytes assessed as inhibition of ACh-induced current amplitude by two-electrode voltage clamp method; format: cell-based; conditions: Oocyte
[4] = biological target: T2, Neuronal acetylcholine receptor; alpha3/beta4 (Homo sapiens) (UniProt P30926+P32297); experiment: Antagonist activity at human alpha3beta4 nAChR expressed in Xenopus laevis oocytes assessed as inhibition of ACh-induced current amplitude at -80 mV holding potential at 100 nM by two-electrode voltage clamp method; format: cell-based; conditions: Oocyte
[5] = Toxicity in mouse assessed as abnormal motor behavior; conditions: in vivo
[6] = biological target: T3, Neuronal acetylcholine receptor; alpha4/beta2 (Homo sapiens) (UniProt P17787+P43681); experiment: Antagonist activity at human alpha4beta2 nAChR expressed in Xenopus laevis oocytes assessed as inhibition of ACh-induced current amplitude at -80 mV holding potential in presence of BAPTA-AM at 100 nM by two-electrode voltage clamp method; format: cell-based; conditions: Oocyte
Rattus norvegicus = species: Rattus norvegicus; experiment: Analgesic activity in chronic constriction injury-induced mechanical pain rat model assessed as increase in paw withdrawal latency measured after 24 hrs; format: functional, organism-based; conditions: DDE = dose-dependent effect
Mus musculus [7] = experiment: Analgesic activity in chronic constriction injury-induced mechanical pain mouse model assessed as increase in paw withdrawal latency at 25 ug/kg measured after 24 hrs; format: functional, organism-based; conditions: dose 25.0 µg/kg
[8] = biological target: Neuronal acetylcholine receptor; alpha9/alpha10 (Homo sapiens, UniProt Q9GZZ6+Q9UGM1); experiment: Antagonist activity at human alpha9alpha10 nAChR expressed in Xenopus laevis oocytes assessed as inhibition of ACh-induced current amplitude at -80 mV holding potential by two-electrode voltage clamp method; format: cell-based, Oocyte
[9] = biological target: T1, Neuronal acetylcholine receptor; alpha9/alpha10 (Homo sapiens); experiment: Antagonist activity at human alpha9alpha10 nAChR expressed in Xenopus laevis oocytes assessed as inhibition of ACh-induced current amplitude at -80 mV holding potential at 100 nM by two-electrode voltage clamp method; format: cell-based; conditions: Oocyte, filed as antagonist
[10] = biological target: T4, Neuronal acetylcholine receptor; alpha3/beta2 (Homo sapiens, UniProt P17787+P32297); experiment: Antagonist activity at human alpha3beta2 nAChR expressed in Xenopus laevis oocytes assessed as inhibition of ACh-induced current amplitude at -80 mV holding potential at 1 uM by two-electrode voltage clamp method; format: cell-based; conditions: Oocyte
[11] = biological target: T5, Neuronal acetylcholine receptor subunit alpha-7 (Homo sapiens, UniProt P36544); experiment: Antagonist activity at human alpha7 nAChR expressed in Xenopus laevis oocytes assessed as inhibition of ACh-induced current amplitude at -80 mV holding potential at 100 nM by two-electrode voltage clamp method; format: cell-based; conditions: Oocyte, filed as antagonist
[12] = biological target: T4, Neuronal acetylcholine receptor; alpha3/beta2; experiment: Antagonist activity at human alpha3beta2 nAChR expressed in Xenopus laevis oocytes assessed as inhibition of ACh-induced current amplitude at -80 mV holding potential at 100 nM by two-electrode voltage clamp method; format: cell-based; conditions: Oocyte, filed as antagonist
Mus musculus [13] = experiment: Analgesic activity in chronic constriction injury-induced mechanical pain mouse model assessed as increase in paw withdrawal latency at 0.5 ug/kg measured after 12 hrs; format: functional, organism-based; conditions: dose 5.0 µg/kg
[14] = biological target: T4, Neuronal acetylcholine receptor; alpha3/beta2; experiment: Antagonist activity at human alpha3beta2 nAChR expressed in Xenopus laevis oocytes assessed as inhibition of ACh-induced current amplitude at -80 mV holding potential by two-electrode voltage clamp method; format: cell-based, Oocyte
[15] = biological target: T5, Neuronal acetylcholine receptor subunit alpha-7; experiment: Antagonist activity at human alpha7 nAChR expressed in Xenopus laevis oocytes assessed as inhibition of ACh-induced current amplitude at -80 mV holding potential by two-electrode voltage clamp method; format: cell-based, Oocyte
[16] = biological target: T5, Neuronal acetylcholine receptor subunit alpha-7; experiment: Antagonist activity at human alpha7 nAChR expressed in Xenopus laevis oocytes assessed as inhibition of ACh-induced current amplitude at -80 mV holding potential in presence of BAPTA-AM by two-electrode voltage clamp method; format: cell-based, Oocyte
[17] = biological target: T1, Neuronal acetylcholine receptor; alpha9/alpha10 (Homo sapiens); experiment: Antagonist activity at human alpha9alpha10 nAChR expressed in Xenopus laevis oocytes assessed as inhibition of ACh-induced current amplitude at -80 mV holding potential at 10 uM by two-electrode voltage clamp method; format: cell-based; conditions: Oocyte, filed as antagonist
[18] = biological target: T5, Neuronal acetylcholine receptor subunit alpha-7; experiment: Antagonist activity at human alpha7 nAChR expressed in Xenopus laevis oocytes assessed as inhibition of ACh-induced current amplitude at -80 mV holding potential at 1 uM by two-electrode voltage clamp method; format: cell-based; conditions: Oocyte
[19] = biological target: T4, Neuronal acetylcholine receptor; alpha3/beta2; experiment: Antagonist activity at human alpha3beta2 nAChR expressed in Xenopus laevis oocytes assessed as inhibition of ACh-induced current amplitude at -80 mV holding potential in presence of BAPTA-AM at 10 uM by two-electrode voltage clamp method; format: cell-based; conditions: Oocyte, filed as antagonist
[20] = biological target: T4, Neuronal acetylcholine receptor; alpha3/beta2; experiment: Antagonist activity at human alpha3beta2 nAChR expressed in Xenopus laevis oocytes assessed as inhibition of ACh-induced current amplitude at -80 mV holding potential at 10 uM by two-electrode voltage clamp method; format: cell-based; conditions: Oocyte, filed as antagonist
[21] = biological target: T2, Neuronal acetylcholine receptor; alpha3/beta4 (Homo sapiens); experiment: Antagonist activity at human alpha3beta4 nAChR expressed in Xenopus laevis oocytes assessed as inhibition of ACh-induced current amplitude at -80 mV holding potential in presence of BAPTA-AM at 10 uM by two-electrode voltage clamp method; format: cell-based; conditions: Oocyte, filed as antagonist
[22] = biological target: T2, Neuronal acetylcholine receptor; alpha3/beta4 (Homo sapiens); experiment: Antagonist activity at human alpha3beta4 nAChR expressed in Xenopus laevis oocytes assessed as inhibition of ACh-induced current amplitude at -80 mV holding potential at 10 uM by two-electrode voltage clamp method; format: cell-based; conditions: Oocyte, filed as antagonist
Oocyte = experiment: Antagonist activity at rat alpha9alpha10 nAChR expressed in Xenopus laevis oocytes assessed as inhibition of ACh-induced current amplitude at 10 uM by two-electrode voltage clamp method; format: cell-based; conditions: filed as antagonist
[23] = biological target: T3, Neuronal acetylcholine receptor; alpha4/beta2 (Homo sapiens); experiment: Antagonist activity at human alpha4beta2 nAChR expressed in Xenopus laevis oocytes assessed as inhibition of ACh-induced current amplitude at -80 mV holding potential at 10 uM by two-electrode voltage clamp method; format: cell-based; conditions: Oocyte, filed as antagonist
[24] = biological target: T2, Neuronal acetylcholine receptor; alpha3/beta4 (Homo sapiens); experiment: Antagonist activity at human alpha3beta4 nAChR expressed in Xenopus laevis oocytes assessed as inhibition of ACh-induced current amplitude at -80 mV holding potential at 1 uM by two-electrode voltage clamp method; format: cell-based; conditions: Oocyte, filed as antagonist
[25] = biological target: T5, Neuronal acetylcholine receptor subunit alpha-7; experiment: Antagonist activity at human alpha7 nAChR expressed in Xenopus laevis oocytes assessed as inhibition of ACh-induced current amplitude at -80 mV holding potential at 10 uM by two-electrode voltage clamp method; format: cell-based; conditions: Oocyte, filed as antagonist
[26] = biological target: T3, Neuronal acetylcholine receptor; alpha4/beta2 (Homo sapiens); experiment: Antagonist activity at human alpha4beta2 nAChR expressed in Xenopus laevis oocytes assessed as inhibition of ACh-induced current amplitude at -80 mV holding potential at 1 uM by two-electrode voltage clamp method; format: cell-based; conditions: Oocyte, filed as antagonist
[27] = biological target: Neuronal acetylcholine receptor subunit alpha-7 (Rattus norvegicus) (UniProt Q05941); experiment: Inhibition of rat neuronal alpha7 nAChR expressed in Xenopus laevis oocytes assessed as inhibition of ACh-induced current amplitude at 1 uM by two-electrode voltage clamp method; format: cell-based; conditions: Oocyte, filed as antagonist
Neuronal acetylcholine receptor subunit alpha-7 (Rattus norvegicus), sequence (Q05941 whole entry): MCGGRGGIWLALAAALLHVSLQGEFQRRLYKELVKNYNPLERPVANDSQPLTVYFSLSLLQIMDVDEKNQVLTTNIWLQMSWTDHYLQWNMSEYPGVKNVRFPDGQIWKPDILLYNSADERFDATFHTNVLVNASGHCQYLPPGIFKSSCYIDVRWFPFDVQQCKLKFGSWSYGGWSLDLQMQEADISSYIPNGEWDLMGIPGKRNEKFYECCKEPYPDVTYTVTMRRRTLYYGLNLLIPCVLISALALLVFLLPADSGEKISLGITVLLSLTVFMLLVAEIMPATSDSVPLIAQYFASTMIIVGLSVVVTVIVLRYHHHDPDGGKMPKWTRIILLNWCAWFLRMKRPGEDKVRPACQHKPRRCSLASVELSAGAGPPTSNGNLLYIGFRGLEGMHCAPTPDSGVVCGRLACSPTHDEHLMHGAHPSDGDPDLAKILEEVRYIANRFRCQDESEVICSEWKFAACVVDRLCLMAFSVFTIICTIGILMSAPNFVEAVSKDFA

T5 sequence (P36544 whole entry): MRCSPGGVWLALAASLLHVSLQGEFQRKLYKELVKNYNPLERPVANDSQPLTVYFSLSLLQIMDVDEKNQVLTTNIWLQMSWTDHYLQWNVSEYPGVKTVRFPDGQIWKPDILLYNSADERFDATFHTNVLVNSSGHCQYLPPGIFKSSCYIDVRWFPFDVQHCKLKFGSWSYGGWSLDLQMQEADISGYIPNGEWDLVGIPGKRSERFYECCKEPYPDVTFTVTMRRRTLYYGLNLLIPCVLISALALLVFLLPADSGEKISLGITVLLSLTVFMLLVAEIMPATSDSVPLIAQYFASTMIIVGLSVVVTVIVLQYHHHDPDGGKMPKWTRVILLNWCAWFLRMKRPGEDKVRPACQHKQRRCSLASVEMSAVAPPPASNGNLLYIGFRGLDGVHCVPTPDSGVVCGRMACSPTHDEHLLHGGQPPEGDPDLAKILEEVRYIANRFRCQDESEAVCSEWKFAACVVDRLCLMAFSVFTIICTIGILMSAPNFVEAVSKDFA
T4 sequence (P17787 whole entry): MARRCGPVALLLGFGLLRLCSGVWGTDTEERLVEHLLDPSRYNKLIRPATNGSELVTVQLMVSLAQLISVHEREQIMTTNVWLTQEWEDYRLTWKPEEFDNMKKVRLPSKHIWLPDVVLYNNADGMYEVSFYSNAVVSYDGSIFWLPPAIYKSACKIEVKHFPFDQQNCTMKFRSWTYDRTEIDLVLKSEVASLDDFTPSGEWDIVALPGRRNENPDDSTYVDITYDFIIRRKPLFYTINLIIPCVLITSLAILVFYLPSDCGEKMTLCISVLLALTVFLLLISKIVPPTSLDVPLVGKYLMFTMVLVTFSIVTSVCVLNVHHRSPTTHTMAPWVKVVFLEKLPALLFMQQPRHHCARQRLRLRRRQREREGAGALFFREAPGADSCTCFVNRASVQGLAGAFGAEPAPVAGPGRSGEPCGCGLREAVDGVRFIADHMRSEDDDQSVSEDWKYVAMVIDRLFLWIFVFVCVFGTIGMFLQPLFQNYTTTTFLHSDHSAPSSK
T4 sequence (P32297 whole entry): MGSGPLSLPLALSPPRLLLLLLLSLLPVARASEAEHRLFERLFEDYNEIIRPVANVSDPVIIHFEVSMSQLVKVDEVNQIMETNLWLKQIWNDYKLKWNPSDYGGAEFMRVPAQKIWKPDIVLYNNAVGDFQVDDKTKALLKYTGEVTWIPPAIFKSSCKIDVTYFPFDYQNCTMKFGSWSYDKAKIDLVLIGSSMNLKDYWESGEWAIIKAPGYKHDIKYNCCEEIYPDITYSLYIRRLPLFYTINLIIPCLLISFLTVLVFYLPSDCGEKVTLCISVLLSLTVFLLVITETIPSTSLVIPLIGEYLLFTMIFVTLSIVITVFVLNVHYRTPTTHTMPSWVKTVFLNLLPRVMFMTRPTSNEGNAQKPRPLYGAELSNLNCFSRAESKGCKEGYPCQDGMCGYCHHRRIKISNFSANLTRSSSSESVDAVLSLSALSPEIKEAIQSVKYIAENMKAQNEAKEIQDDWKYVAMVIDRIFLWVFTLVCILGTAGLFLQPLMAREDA
Neuronal acetylcholine receptor; alpha9/alpha10, sequence (Q9UGM1 whole entry): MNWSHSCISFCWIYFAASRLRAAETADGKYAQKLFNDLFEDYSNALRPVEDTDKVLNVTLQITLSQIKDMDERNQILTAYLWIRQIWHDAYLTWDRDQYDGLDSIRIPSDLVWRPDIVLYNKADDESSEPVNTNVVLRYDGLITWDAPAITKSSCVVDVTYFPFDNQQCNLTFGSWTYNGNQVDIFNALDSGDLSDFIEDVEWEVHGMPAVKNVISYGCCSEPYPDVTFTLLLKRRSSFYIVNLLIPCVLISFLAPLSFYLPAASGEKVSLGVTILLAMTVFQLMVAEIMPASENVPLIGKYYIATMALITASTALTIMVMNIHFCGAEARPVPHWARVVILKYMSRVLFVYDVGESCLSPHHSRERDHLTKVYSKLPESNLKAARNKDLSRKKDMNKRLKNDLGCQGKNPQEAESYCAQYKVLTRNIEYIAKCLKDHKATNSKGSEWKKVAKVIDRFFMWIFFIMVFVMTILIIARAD
Neuronal acetylcholine receptor; alpha9/alpha10, sequence (Q9GZZ6 whole entry): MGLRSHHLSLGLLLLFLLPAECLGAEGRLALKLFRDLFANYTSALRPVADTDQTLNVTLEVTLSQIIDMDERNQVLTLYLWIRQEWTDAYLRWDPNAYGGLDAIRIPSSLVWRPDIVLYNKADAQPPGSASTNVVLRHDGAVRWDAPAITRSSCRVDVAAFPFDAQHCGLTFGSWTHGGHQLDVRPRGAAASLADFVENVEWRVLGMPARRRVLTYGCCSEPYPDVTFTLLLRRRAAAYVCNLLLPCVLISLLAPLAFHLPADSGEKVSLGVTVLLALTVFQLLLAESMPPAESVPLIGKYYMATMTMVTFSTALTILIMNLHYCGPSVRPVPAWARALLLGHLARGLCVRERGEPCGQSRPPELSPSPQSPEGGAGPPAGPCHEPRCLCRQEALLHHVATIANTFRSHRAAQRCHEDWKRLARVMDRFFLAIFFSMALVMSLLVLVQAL

## CC[C@H](C)[C@@H]1NC(=O)[C@H](CC(=O)O)NC(=O)[C@@H]2CCCN2C(=O)[C@H](Cc2cnc[nH]2)NC(=O)[C@H](CC(N)=O)NC(=O)[C@H](C(C)C)NC(=O)[C@H](CO)NC(=O)[C@@H]2CSSC[C@H](NC(=O)CN)C(=O)N[C@@H](CSSC[C@@H](C(N)=O)NC1=O)C(=O)N[C@@H](CO)C(=O)N[C@@H](Cc1cnc[nH]1)C(=O)N1CCC[C@H]1C(=O)N[C@@H](C)C(=O)N2 (H-GCCSHPACSVNHPDIC-NH2; disulfide 2-8, 3-16)
[1]
  inhibition: 20%
[1]; filed as antagonist
  inhibition: 40%

## CC[C@H](C)[C@@H]1NC(=O)[C@H](CC(=O)O)NC(=O)[C@@H]2CCCN2C(=O)[C@H](CC(N)=O)NC(=O)[C@H](CC(N)=O)NC(=O)[C@H](C(C)C)NC(=O)[C@H](CO)NC(=O)[C@@H]2CSSC[C@H](NC(=O)CN)C(=O)N[C@@H](CSSC[C@@H](C(N)=O)NC1=O)C(=O)NC(CN)C(=O)N[C@@H](Cc1cnc[nH]1)C(=O)N1CCC[C@H]1C(=O)N[C@@H](C)C(=O)N2 (stereo partly specified) (H-GCC[ξDap]HPACSVNNPDIC-NH2; disulfide 2-8, 3-16)
Mus musculus [2]
  Activity: Active
[3]
  IC50: 1.7 nM
[4]
  inhibition: 5%
[5]
  Activity: Non-Toxic
[6]
  inhibition: 5%
Rattus norvegicus
  Activity: Dde
Mus musculus [7]
  Activity: Active
[8]
  IC50: 4 nM
[9]
  inhibition: > 85%
[10]; filed as antagonist
  inhibition: > 95%
[11]
  inhibition: 90%
[12]
  inhibition: 85%
Mus musculus [13]
  Activity: Active
[14]
  IC50: 20.6 nM
[15]
  IC50: 259 nM
[16]
  IC50: 265 nM

## CC[C@H](C)[C@@H]1NC(=O)[C@H](CC(=O)O)NC(=O)[C@@H]2CCCN2C(=O)[C@H](CC(N)=O)NC(=O)[C@H](CC(N)=O)NC(=O)[C@H](C(C)C)NC(=O)[C@H](CO)NC(=O)[C@@H]2CSSC[C@H](NC(=O)CN)C(=O)N[C@@H](CSSC[C@@H](C(N)=O)NC1=O)C(=O)N[C@@H](C)C(=O)N[C@@H](Cc1cnc[nH]1)C(=O)N1CCC[C@H]1C(=O)N[C@@H](C)C(=O)N2 (H-GCCAHPACSVNNPDIC-NH2; disulfide 2-8, 3-16)
[17]
  inhibition: Active

## CC[C@H](C)[C@@H]1NC(=O)[C@H](CC(=O)O)NC(=O)[C@@H]2CCCN2C(=O)[C@H](CC(N)=O)NC(=O)[C@H](CC(N)=O)NC(=O)[C@H](C(C)C)NC(=O)[C@H](CO)NC(=O)[C@@H]2CSSC[C@H](NC(=O)CN)C(=O)N[C@@H](CSSC[C@@H](C(N)=O)NC1=O)C(=O)N[C@@H](CO)C(=O)N[C@@H](Cc1cnc[nH]1)C(=O)N1CCC[C@H]1C(=O)N[C@@H](C)C(=O)N2 (H-GCCSHPACSVNNPDIC-NH2; disulfide 2-8, 3-16)
[18]
  inhibition: 25%
[19]
  inhibition: 50%
[1]; filed as antagonist
  inhibition: 95%
[20]
  inhibition: > 90%
[3]
  IC50: 8.3 nM
[21]
  inhibition: 50%
[22]
  inhibition: > 90%
[8]
  IC50: 92 nM
Oocyte
  inhibition: 100%
[10]
  inhibition: 90%
[23]
  inhibition: 40%
[24]
  inhibition: 60%
[25]
  inhibition: 80%
[26]
  inhibition: Active
[14]
  IC50: 219 nM
[27]
  inhibition: 65%
[17]
  inhibition: > 90%
